Measurements reported in ChEMBL document CHEMBL1201862, “PubChem BioAssay data set” (2004).
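Compound exposure: 48 hours, 5 concentrations, 96-well plates. GI50: concentration for 50% inhibition of growth.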 Activity calls are given as the source filed them. Rule as the data show it: active = GI50 up to about 1.1 µM and inactive = higher.

Columns and labels:
Experiment in all cases: NCI tumour cell line growth inhibition, 48 h
ACHN = tested on: ACHN
CCRF-CEM = tested on: CCRF-CEM
HCT-116 = tested on: HCT-116
HOP-62 = tested on: HOP-62
HOP-92 = tested on: HOP-92
HT-29 = tested on: HT-29
IGROV-1 = tested on: IGROV-1
K562 = tested on: K562
KM12 = tested on: KM12
LOX IMVI = tested on: LOX IMVI
MCF7 = tested on: MCF7
Malme-3M = tested on: Malme-3M
NCI-H460 = tested on: NCI-H460
OVCAR-3 = tested on: OVCAR-3
OVCAR-4 = tested on: OVCAR-4
RPMI-8226 = tested on: RPMI-8226
SF-295 = tested on: SF-295
SK-MEL-28 = tested on: SK-MEL-28
U-251 = tested on: U-251
UACC-257 = tested on: UACC-257

Row | Compound | GI50 (ACHN) | GI50 (CCRF-CEM) | GI50 (HCT-116) | GI50 (HOP-62) | GI50 (HOP-92) | GI50 (HT-29) | GI50 (IGROV-1) | GI50 (K562) | GI50 (KM12) | GI50 (LOX IMVI) | GI50 (MCF7) | GI50 (Malme-3M) | GI50 (NCI-H460) | GI50 (OVCAR-3) | GI50 (OVCAR-4) | GI50 (RPMI-8226) | GI50 (SF-295) | GI50 (SK-MEL-28) | GI50 (U-251) | GI50 (UACC-257)
1 | COc1cc2cc(C(=O)N3CC(CCl)c4ccc(NO)cc43)[nH]c2c(OC)c1OC (centres undefined) | 0.091 µM (active) | 0.137 µM (active) | 0.253 µM (active) | 0.0925 µM (active) | 0.352 µM (active) | 0.0646 µM (active) | 0.0968 µM (active) | 0.139 µM (active) | 0.155 µM (active) | 0.164 µM (active) | 0.0391 µM (active) | 0.164 µM (active) | 0.0446 µM (active) | 0.257 µM (active) | 0.177 µM (active) | 0.117 µM (active) | 0.0836 µM (active) | 0.245 µM (active) | 0.0927 µM (active) | 0.201 µM (active)
2 | COC(=O)C(F)C(Br)C(=O)OC (centres undefined) | 1.86 µM (inactive) | 0.684 µM (active) | 2.74 µM (inactive) | 16.3 µM (inactive) | 2.56 µM (inactive) | 2.57 µM (inactive) | 2.69 µM (inactive) | 1.63 µM (inactive) | 20.3 µM (inactive) | 6.41 µM (inactive) | 3.42 µM (inactive) | 6.47 µM (inactive) | 18.9 µM (inactive) | 2.11 µM (inactive) | 3.39 µM (inactive) | 1.41 µM (inactive) | 26.4 µM (inactive) | 18 µM (inactive) | 3.05 µM (inactive) | 14.6 µM (inactive)
3 | C[C@H]1S[C@@H](c2ccc(Cl)cc2Cl)N(NC(=O)c2ccncc2)C1=O |  | 11.3 µM (inactive) | 34.5 µM (inactive) | > 100 µM (inactive) | 60.5 µM (inactive) | > 100 µM (inactive) | > 100 µM (inactive) | 28.1 µM (inactive) | > 100 µM (inactive) |  | 45 µM (inactive) | > 100 µM (inactive) | 58.2 µM (inactive) | 35.6 µM (inactive) | > 100 µM (inactive) | 40.2 µM (inactive) |  | 45.2 µM (inactive) | 64 µM (inactive) | 
4 | O=C1NC(O)CCN1C1OC(CO)C(O)C1O (centres undefined) |  | > 250 µM (inactive) | > 141 µM (inactive) | > 228 µM (inactive) | > 250 µM (inactive) | > 250 µM (inactive) | > 250 µM (inactive) | > 250 µM (inactive) | > 250 µM (inactive) | > 136 µM (inactive) | > 250 µM (inactive) | > 250 µM (inactive) | > 250 µM (inactive) | > 250 µM (inactive) | > 250 µM (inactive) | > 250 µM (inactive) | > 250 µM (inactive) | > 250 µM (inactive) | > 79.8 µM (inactive) | > 250 µM (inactive)
5 | CC/C=C\C/C=C\C/C=C\CCCCCCCC(=O)OC [METHYL LINOLENATE] |  | 45.8 µM (inactive) | 91.6 µM (inactive) | > 100 µM (inactive) | > 100 µM (inactive) | > 100 µM (inactive) | > 100 µM (inactive) | 45.5 µM (inactive) | > 100 µM (inactive) | 18.9 µM (inactive) | > 100 µM (inactive) | > 100 µM (inactive) | > 100 µM (inactive) | > 100 µM (inactive) | > 100 µM (inactive) | 99.3 µM (inactive) | > 100 µM (inactive) | > 100 µM (inactive) | > 100 µM (inactive) | > 100 µM (inactive)
6 | O=C1CSC(/C=C/c2ccccc2)N1c1nc2cc3sc(N4C(=O)CSC4/C=C/c4ccccc4)nc3cc2s1 (centres undefined) | 42.1 µM (inactive) | 3.53 µM (inactive) | 27.7 µM (inactive) | > 74 µM (inactive) | > 100 µM (inactive) | 18 µM (inactive) | > 62.1 µM (inactive) | 42.4 µM (inactive) | 48.9 µM (inactive) | > 41.3 µM (inactive) | 13.5 µM (inactive) | > 87.1 µM (inactive) | 3.33 µM (inactive) | 38.8 µM (inactive) | 65.3 µM (inactive) | 22 µM (inactive) | > 100 µM (inactive) | > 58.7 µM (inactive) | 44.6 µM (inactive) | > 86.5 µM (inactive)
